In PubChem BioAssay (NCI):
Where “and” joins values, the source holds several entries; their conditions need not be identical. Identical values can stand only once.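 Cultured in 96-well plates, cells were exposed to test compound for 48 hours across five concentrations. GI50 marks 50% less growth. At the TGI there is no net growth.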

Key:
Assay in all cases: NCI tumour cell line growth inhibition, 48 h
RXF 393 renal = tested on: RXF 393 renal
OVCAR-8 ovarian = tested on: OVCAR-8 ovarian
EKVX NSCLC = tested on: EKVX NSCLC
SNB-19 CNS = tested on: SNB-19 CNS
SN12C renal = tested on: SN12C renal
OVCAR-5 ovarian = tested on: OVCAR-5 ovarian
HCT-15 colon = tested on: HCT-15 colon
ACHN renal = tested on: ACHN renal
T-47D breast = tested on: T-47D breast
NCI-H226 lung = tested on: NCI-H226 lung

SMILES | GI50 (RXF 393 renal) | TGI (RXF 393 renal) [µM] | GI50 (OVCAR-8 ovarian) | TGI (OVCAR-8 ovarian) [µM] | GI50 (EKVX NSCLC) | TGI (EKVX NSCLC) [µM] | GI50 (SNB-19 CNS) [µM] | TGI (SNB-19 CNS) [µM] | GI50 (SN12C renal) | TGI (SN12C renal) [µM] | GI50 (OVCAR-5 ovarian) | TGI (OVCAR-5 ovarian) [µM] | GI50 (HCT-15 colon) | TGI (HCT-15 colon) [µM] | GI50 (ACHN renal) | TGI (ACHN renal) [µM] | GI50 (T-47D breast) | TGI (T-47D breast) [µM] | GI50 (NCI-H226 lung) | TGI (NCI-H226 lung) [µM]
CN(C)CCCN(CCC1CCCCC1)CCC1CCCCC1 | 1.47 µM | 4.24 | 3.12 µM | 7.12 | 5.68 µM | 18.8 | 5.63 | 18.8 | 9.79 µM | 22.9 | 2.7 µM | 7.97 | 1.46 µM | 3.59 | 4.14 µM | 14.4 | 1.57 µM | 3.52 | 12.1 µM | 26.7
CO[C@H]1C=CO[C@@]2(C)Oc3c(C)c(O)c4c(O)c(c(CN5CCN(C)CC5)c(O)c4c3C2=O)NC(=O)/C(C)=C\C=C[C@H](C)[C@H](O)C(C)[C@@H](O)C(C)[C@H](OC(C)=O)[C@@H]1C (some centres not stated) | – | > 100 | – | > 100 | – | > 100 | – | > 100 | – | > 93.9 | – | > 100 | – | > 100 | – | > 100 | – | > 100 | – | > 100
O=C(/C=C/c1ccc(Cl)cc1)c1ccccc(=O)c1O | – | > 100 | – | > 100 | – | 18.3 | – | 11.8 | – | 4.58 | – | 19.8 | – | 6.08 | – | 6.66 | – | 19.8 | – | 5.45
Cc1ccc(Nc2nccc(N(C)c3ccc4c(C)n(C)nc4c3)n2)cc1S(N)(=O)=O | 2.43 µM and 0.634 µM and 2.41 µM | – | 4.8 µM and 3.61 µM and 5.04 µM | > 100 | 3.22 µM and 4.11 µM and 15.2 µM | > 100 | – | > 100 | 3.77 µM and 2.65 µM and 6.38 µM | > 100 | 1.43 µM and 6.49 µM | > 100 | 4.04 µM and 2.77 µM and 5.98 µM | > 100 | 4.08 µM and 3.12 µM and 4.98 µM | > 100 | 3.91 µM and 1.58 µM and 3.98 µM | – | 0.781 µM and 0.425 µM and 1.41 µM | > 100
O=c1oc2ccc(I)cc2c(=O)n1-c1ccc(F)cc1F | 2.44 µM | 6.09 | 2.86 µM | 13.2 | 1.98 µM | 8.1 | 2.63 | > 100 | 2.36 µM | 8.91 | 3.96 µM | > 100 | 2.71 µM | 11.4 | 2.52 µM | 8.42 | 1.99 µM | 6 | 2.41 µM | 12.7
O=S(=O)(CCN1CCOCC1)Nc1cc(-c2ccc3ncnc(Nc4ccc(F)c(Cl)c4)c3c2)cnc1Cl | 0.239 µM | 1.35 | 1.67 µM | 31.2 | 0.282 µM | 3.64 | 0.453 | 4.85 | 0.391 µM | > 100 | 0.492 µM | > 100 | 1.23 µM | 28.9 | 0.735 µM | > 100 | 0.07 µM | 0.975 | 0.584 µM | 26.4
CC(=O)O[C@H]([C@H](OC(C)=O)[C@H](C)OC(C)=O)[C@@H](/C=C/[C@@H]1CC=CC(=O)O1)OC(C)=O | > 100 µM | > 100 | 40.6 µM | > 100 | > 100 µM | > 100 | 59.5 | > 100 | 84.1 µM | > 100 | > 100 µM | > 100 | 44.2 µM | > 100 | > 100 µM | > 100 | 27.4 µM | > 100 | > 100 µM | > 100
COC1C(O)CC(OC2CC(OC3CC(O[C@@H]4C(=O)c5c(cc6cc(OC7CC(OC8CC(O)C(O)C(C)O8)C(O)C(C)O7)c(C)c(O)c6c5O)CC4[C@H](OC)C(=O)O)OC(C)C3O)OC(C)C2O)OC1C (some centres not stated) | 1.1 µM | 4.22 | 2.27 µM | > 33.3 | 2.31 µM | > 33.3 | 1.68 | > 33.3 | 1.72 µM | > 33.3 | 4.04 µM | > 33.3 | 6.3 µM | > 33.3 | 1.09 µM | > 33.3 | 1.33 µM | 32.1 | 1.15 µM | 9.72
COc1ccc(C=Nc2c(C(=O)Nc3cccc(Cl)c3C)sc3nc(C)c(C(=O)/C=C/c4ccc(OC)cc4)cc23)cc1 | 0.163 µM | 0.906 | 1.38 µM | > 50 | 2.24 µM | > 50 | 1.58 | 28.3 | 0.853 µM | > 50 | 2.04 µM | > 50 | 0.382 µM | > 50 | 0.425 µM | > 50 | 1.28 µM | > 50 | 0.621 µM | 11.7
O=C1C(=C(C(F)(F)Cl)C(F)(F)Cl)C2CCC1C2 (configuration not stated) | – | 3.07 | – | 4.24 | – | > 10 | – | > 10 | – | 3.61 | – | > 10 | – | 3.97 | – | 3.32 | – | 4.58 | – | > 9.06
CC(=O)OC1CCC2(C)C(CCC3C2CC(=O)C2(C)C3CC(N3CC3)C2C(C)=O)C1 (configuration not stated) | – | 42.3 | – | 46.7 | – | 40.9 | – | 63.4 | – | 61 | – | > 100 | – | 70.6 | – | 29.6 | – | 65.2 | – | 37.8
